Literature values, collected in patent US9999602B2, “Liquid menthol compositions” (DDROPS COMPANY, priority 2013, dated 2018).

Settings: FDA review, Federal Register 1987

## CC(C)[C@@H]1CC[C@@H](C)C[C@H]1O [menthol, (1R, 2S, 5R)-5-menthol-2-(1-methylethyl)-cyclohexanol]
  Dose of menthol required for antitussive (cough-suppressant) effect: at least 5 mg
